Literature values, collected in publication PMC11881343, “Safety of ilunocitinib tablets (Zenrelia™) after once daily oral administration in dogs” (BMC Veterinary Research, 2025).

How the values were obtained:
[1] = tested on: human patients with rheumatoid arthritis; parameters: method as in PMID 31362993; settings: human medicine; cited from earlier work
dogs = settings: cited from earlier work
JAK3 = tested on: JAK3; parameters: method as in PMID 32413585; settings: cited from earlier work
[2] = tested on: peripheral blood leukocytes; settings: rheumatoid arthritis patients in phase III clinical trials; cited from earlier work

SMILES | effect on hemoglobin [1] | Weight gain in dogs (dogs; dogs) | Papillomas in dogs (dogs; resorbed spontaneously) | potency against JAK3 (JAK3) | changes in lymphocytes subsets populations [2]
CC[C@@H]1CN(C(=O)NCC(F)(F)F)C[C@@H]1c1cnc2cnc3[nH]ccc3n12 [upadacitinib] | limited impact on hemoglobin |  |  |  | 
CNS(=O)(=O)C[C@H]1CC[C@H](N(C)c2ncnc3[nH]ccc23)CC1 [oclacitinib] |  | Weight gain has been reported | Papillomas were also observed |  | 
CCS(=O)(=O)N1CC(CC#N)(n2cc(-c3ncnc4[nH]ccc34)cn2)C1 [baricitinib] | initial decrease in hemoglobin within the normal range followed by a slight increase |  |  | significantly lower potency against JAK3 | minimal and reversible changes
